Results from article PMC4256409, “Role of Phenylalanine and Valine^10 Residues in the Antimicrobial Activity and Cytotoxicity of Piscidin-1” (PLoS ONE, 2014).
Where no end group is shown, it is not given here.

Legend:
[1] = test system: S. typhimurium KCTC1926; type: cell-based, Salmonella typhimurium; settings: KCTC1926, 16 h
[2] = test system: P. aeruginosa KCTC1637; type: cell-based, Pseudomonas aeruginosa; settings: KCTC1637, 16 h
[3] = test system: MDREC CCARM 1229; type: cell-based, multidrug-resistant E. coli; settings: broth microdilution, 37°C, 16 h, three independent experiments in triplicate, SD 14.0%
[4] = test system: E.coli KCTC2571; type: cell-based, Escherichia coli; settings: KCTC2571, 16 h
[5] = test system: Drug-resistant bacterial strains; settings: average over the 18 drug-resistant bacterial strains of Table 3
Source text: Escherichia coli KCTC 1682, E. coli KCTC 2593, E. coli KCTC 2571, Salmonella typhimurium KCTC 1926, Pseudomonas aeruginosa KCTC 1637, P. aeruginosa KCTC 2004, P. aeruginosa KCTC 2513, Bacillus subtilis KCTC 3068, B. subtilis KCTC 1021, B. subtilis KCTC 1022, Staphylococcus epidermidis KCTC 1917, Staphylococcus aureus KCTC 1621, S. aureus KCTC 1916, and S. aureus KCTC 3881 were purchased from the Korean Collection for Type Cultures, Korea Research Institute of Bioscience & Biotechnology (Taejon, Korea). Methicillin-resistant S. aureus (MRSA) (CCARM 3089, CCARM 3090, CCARM 3108, CCARM 3114, and CCARM 3126), multidrug-resistant E. coli (MDREC) (CCARM 1229 and CCARM 1238), multidrug-resistant S. typhimurium (MDRST) (CCARM 8003, CCARM 8007, and CCARM 8009), multidrug-resistant Acinetobacter baumanii (MDRAB) (CCARM 12005, CCARM 12035, CCARM 12036, CCARM 12037), and multidrug-resistant P. aeruginosa (MDRPA) (CCARM 2002, CCARM 2003, CCARM 2095, and CCARM 2163) were obtained from the Culture Collection of Antibiotic-Resistant Microbes (CCARM) at Seoul Women’s University in Korea. The antimicrobial activities of the peptides against selected organisms, including three Gram-positive, three Gram-negative, and five antibiotic-resistant bacteria, were determined using a broth microdilution assay. Briefly, single colonies of bacteria and fungi were inoculated into Luria-Bertani (LB) medium and cultured overnight at 37°C. An aliquot of the culture was transferred to 10 mL of fresh LB and incubated for an additional 3–5 h at 37°C until it reached the mid-logarithmic phase. Two-fold serial dilutions of the peptides in 1% peptone were prepared. The serial dilutions (100 µL) were added to 100 µL of cells (2×10^6 colony-forming units (CFU)/mL) in 96-well microtiter plates and incubated at 37°C for 16 h. […] MIC values were calculated as the average of triplicate measurements from three independent assays.

[6] = test system: S. epidermidis KCTC1917; type: cell-based, Staphylococcus epidermidis; settings: KCTC1917, 16 h
[7] = test system: S. aureus KCTC1916; type: cell-based, Staphylococcus aureus; settings: KCTC1916, 16 h
[8] = test system: MRSA CCARM 3108; type: cell-based, Methicillin-resistant S. aureus; settings: CCARM 3108, 16 h
[9] = test system: P. aeruginosa KCTC2513; type: cell-based, Pseudomonas aeruginosa; settings: KCTC2513, 16 h
[10] = test system: MRSA CCARM 3090; type: cell-based, Methicillin-resistant S. aureus; settings: CCARM 3090, 16 h
[11] = test system: B. subtilis KCTC3068; type: cell-based, Bacillus subtilis; settings: KCTC3068, 16 h
[12] = test system: B. subtilis KCTC1021; type: cell-based, Bacillus subtilis; settings: KCTC1021, 16 h
[13] = test system: B. subtilis KCTC1022; type: cell-based, Bacillus subtilis; settings: KCTC1022, 16 h
[14] = test system: S. aureus KCTC1621; type: cell-based, Staphylococcus aureus; settings: KCTC1621, 16 h
[15] = test system: MDRAB CCARM 12035; type: cell-based, multidrug-resistant Acinetobacter baumanii; settings: broth microdilution, 37°C, 16 h, three independent experiments in triplicate, SD 14.0%
[16] = test system: P. aeruginosa KCTC2004; type: cell-based, Pseudomonas aeruginosa; settings: KCTC2004, 16 h
[17] = test system: MDRST CCARM 8003; type: cell-based, multidrug-resistant S. typhimurium; settings: broth microdilution, 37°C, 16 h, three independent experiments in triplicate, SD 14.0%
[18] = test system: S. aureus KCTC3881; type: cell-based, Staphylococcus aureus; settings: KCTC3881, 16 h
[19] = test system: MDRPA CCARM 2003; type: cell-based, multidrug-resistant P. aeruginosa; settings: broth microdilution, 37°C, 16 h, three independent experiments in triplicate, SD 14.0%
[20] = test system: MDRST CCARM 8007; type: cell-based, multidrug-resistant S. typhimurium; settings: broth microdilution, 37°C, 16 h, three independent experiments in triplicate, SD 14.0%
[21] = test system: E. coli KCTC1682; type: cell-based, Escherichia coli; settings: KCTC1682, 16 h
[22] = test system: MDRAB CCARM 12037; type: cell-based, multidrug-resistant Acinetobacter baumanii; settings: broth microdilution, 37°C, 16 h, three independent experiments in triplicate, SD 14.0%
[23] = test system: MDRPA CCARM 2002; type: cell-based, multidrug-resistant P. aeruginosa; settings: broth microdilution, 37°C, 16 h, three independent experiments in triplicate, SD 14.0%
[24] = test system: E. coli KCTC2593; type: cell-based, Escherichia coli; settings: KCTC2593, 16 h
[25] = test system: Standard bacterial strains; type: cell-based; settings: average over the 14 standard bacterial strains of Table 2
[26] = test system: MDRPA CCARM 2163; type: cell-based, multidrug-resistant P. aeruginosa; settings: broth microdilution, 37°C, 16 h, three independent experiments in triplicate, SD 14.0%
[27] = test system: MDRAB CCARM 12005; type: cell-based, multidrug-resistant Acinetobacter baumanii; settings: broth microdilution, 37°C, 16 h, three independent experiments in triplicate, SD 14.0%
[28] = test system: MDRST CCARM 8009; type: cell-based, multidrug-resistant S. typhimurium; settings: broth microdilution, 37°C, 16 h, three independent experiments in triplicate, SD 14.0%
[29] = test system: MRSA CCARM 3114; type: cell-based, Methicillin-resistant S. aureus; settings: CCARM 3114, 16 h
[30] = test system: MDREC CCARM 1238; type: cell-based, multidrug-resistant E. coli; settings: broth microdilution, 37°C, 16 h, three independent experiments in triplicate, SD 14.0%
[31] = test system: MRSA CCARM3089; type: cell-based, Methicillin-resistant S. aureus; settings: CCARM3089, 16 h
[32] = test system: MDRAB CCARM 12036; type: cell-based, multidrug-resistant Acinetobacter baumanii; settings: broth microdilution, 37°C, 16 h, three independent experiments in triplicate, SD 14.0%
[33] = test system: MDRPA CCARM 2095; type: cell-based, multidrug-resistant P. aeruginosa; settings: broth microdilution, 37°C, 16 h, three independent experiments in triplicate, SD 14.0%
[34] = test system: MRSA CCARM 3126; type: cell-based, Methicillin-resistant S. aureus; settings: CCARM 3126, 16 h

Sequence FKHHIFRGIVHVGKTIHRLVTG [Pis-F2K] has an MIC [1] of 8.0 µM, an MIC [2] of 4.0 µM and an MIC [3] of 16 µM. The MIC [4] was 2.0 µM, the “Average MIC” value [5] was 9.8 µM and the MIC [6] was 2.0 µM. For the same sequence, the MIC [7] was 2.0 µM, the MIC [8] was 16 µM and the MIC [9] was 8.0 µM. The MIC [10] was 16 µM, the MIC [11] was 4.0 µM and the MIC [12] was 4.0 µM. The MIC [13] was 1.0 µM, the MIC [14] was 4.0 µM and the MIC [15] was 2.0 µM. It also gave an MIC [16] of 8.0 µM, an MIC [17] of 16 µM and an MIC [18] of 2.0 µM. It also gave an MIC [19] of 2.0 µM, an MIC [20] of 16 µM and an MIC [21] of 4.0 µM. For the same sequence, the MIC [22] was 2.0 µM, the MIC [23] was 2.0 µM and the MIC [24] was 2.0 µM. The “Average MIC” value [25] was 3.9 µM, the MIC [26] was 2.0 µM and the MIC [27] was 2.0 µM. For the same sequence, the MIC [28] was 16 µM, the MIC [29] was 16 µM and the MIC [30] was 16 µM. It also gave an MIC [31] of 16 µM, an MIC [32] of 2.0 µM and an MIC [33] of 2.0 µM. It also gave an MIC [34] of 16 µM.
Sequence FFHHIARGIVHVGKTIHRLVTG [Pis-F6A] has an MIC [1] of 16 µM, an MIC [2] of 4.0 µM and an MIC [3] of 32 µM. The MIC [4] was 4.0 µM, the “Average MIC” value [5] was 15 µM and the MIC [6] was 4.0 µM. For the same sequence, the MIC [7] was 2.0 µM, the MIC [8] was 16 µM and the MIC [9] was 16 µM. For the same sequence, the MIC [10] was 32 µM, the MIC [11] was 4.0 µM and the MIC [12] was 16 µM. The MIC [13] was 2.0 µM, the MIC [14] was 4.0 µM and the MIC [15] was 4.0 µM. The MIC [16] was 8.0 µM, the MIC [17] was 32 µM and the MIC [18] was 4.0 µM. The MIC [19] was 4.0 µM, the MIC [20] was 16 µM and the MIC [21] was 2.0 µM. For the same sequence, the MIC [22] was 4.0 µM, the MIC [23] was 4.0 µM and the MIC [24] was 2.0 µM. The “Average MIC” value [25] was 6.3 µM, the MIC [26] was 4.0 µM and the MIC [27] was 4.0 µM. The MIC [28] was 16 µM, the MIC [29] was 16 µM and the MIC [30] was 32 µM. For the same sequence, the MIC [31] was 32 µM, the MIC [32] was 4.0 µM and the MIC [33] was 4.0 µM. The MIC [34] was 16 µM.
